By IC50 is commonly meant the concentration needed to halve the response being measured. A higher IC50 goes with weaker potency in that assay.

Experimental findings from US9475817B2 (BRISTOL-MYERS SQUIBB COMPANY, priority 2012, dated 2016) are described below.

For one assay, the target named is CK1ε (Homo sapiens (Human), UniProt P49674). The assay can be described thus: CK1ε kinase assay (Caliper LabChip, fluoresceinated peptide substrate). Format: biochemical. As to conditions: 200 pM CK1ε, 50 μM ATP, 1.5 μM peptide substrate, 22 hours room temperature. As for the experimental part: (§1) CK1ε and CK1δ Kinase Assays
(§2) The kinase assay was performed in V-bottom 384-well plates. […] The reaction was incubated at room temperature for 22 hours and terminated by adding 45 μl of 35 mM EDTA to each sample. […] Compounds were dissolved at 10 mM in dimethylsulfoxide (DMSO) and evaluated at eleven concentrations. IC50 values were derived by non-linear regression analysis.

Another assay has as its target CK1δ (Homo sapiens (Human), UniProt P48730). The assay can be described thus: CK1δ kinase assay (Caliper LabChip, fluoresceinated peptide substrate). Format: biochemical. As to conditions: 200 pM CK1δ, 50 μM ATP, 1.5 μM peptide substrate, 22 hours room temperature. How it is done:
as §1, §2

CK1ε, sequence (P49674 whole entry): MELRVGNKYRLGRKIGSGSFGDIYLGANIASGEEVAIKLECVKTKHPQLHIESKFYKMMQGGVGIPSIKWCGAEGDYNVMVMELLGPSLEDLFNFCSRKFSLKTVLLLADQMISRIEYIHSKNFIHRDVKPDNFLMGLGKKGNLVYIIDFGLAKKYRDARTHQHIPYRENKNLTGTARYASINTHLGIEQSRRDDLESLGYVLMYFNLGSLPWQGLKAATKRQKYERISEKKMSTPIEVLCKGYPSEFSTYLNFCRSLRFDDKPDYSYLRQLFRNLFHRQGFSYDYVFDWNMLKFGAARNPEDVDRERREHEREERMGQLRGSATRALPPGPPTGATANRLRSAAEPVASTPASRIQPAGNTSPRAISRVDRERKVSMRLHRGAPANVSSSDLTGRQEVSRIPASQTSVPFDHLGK
CK1δ, sequence (P48730 whole entry): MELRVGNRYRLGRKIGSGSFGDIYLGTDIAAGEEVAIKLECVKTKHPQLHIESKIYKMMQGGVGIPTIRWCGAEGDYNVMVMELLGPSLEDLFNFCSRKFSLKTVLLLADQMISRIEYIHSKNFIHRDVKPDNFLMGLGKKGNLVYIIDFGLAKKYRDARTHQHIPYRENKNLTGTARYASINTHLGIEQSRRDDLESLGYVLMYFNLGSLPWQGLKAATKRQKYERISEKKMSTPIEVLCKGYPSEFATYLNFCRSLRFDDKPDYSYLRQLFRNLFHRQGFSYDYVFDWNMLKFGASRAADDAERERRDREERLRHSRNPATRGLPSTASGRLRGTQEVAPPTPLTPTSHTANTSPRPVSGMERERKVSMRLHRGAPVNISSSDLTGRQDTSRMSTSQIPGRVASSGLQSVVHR

With `COc1cc(F)cc(C(=O)Nc2cn3nc(-c4cn(C)nc4-c4ccc(F)cc4)ccc3n2)c1` [Compound 45, 3-fluoro-N-(6-(3-(4-fluorophenyl)-1-methyl-1H-pyrazol-4-yl)imidazo[1,2-b]pyridazin-2-yl)-5-methoxybenzamide], the results for the IC50 against CK1ε and on CK1δ were 6.8 nM and 1.9 nM, respectively.

With `O=C(Nc1cn2nc(-c3cn(C4CC4)nc3-c3ccc(F)cc3)ccc2n1)c1ccncc1F` [Compound 106, N-(6-(1-cyclopropyl-3-(4-fluorophenyl)-1H-pyrazol-4-yl)imidazo[1,2-b]pyridazin-2-yl)-3-fluoroisonicotinamide], the IC50 against CK1ε was 14 nM; against CK1δ it was 3.5 nM.

Regarding `Cn1cc(-c2ccc3nc(NC(=O)c4ccc(Br)cc4F)cn3n2)c(-c2ccc(F)cc2)n1` [Compound 42, 4-bromo-2-fluoro-N-(6-(3-(4-fluorophenyl)-1-methyl-1H-pyrazol-4-yl)imidazo[1,2-b]pyridazin-2-yl)benzamide], the values for the IC50 on CK1ε and on CK1δ were 13.7 nM and 2.3 nM, respectively.

Consider `Cn1cc(-c2ccc3nc(NC(=O)c4ncccn4)cn3n2)c(-c2ccc(F)cc2)n1` [Compound 29, N-(6-(3-(4-fluorophenyl)-1-methyl-1H-pyrazol-4-yl)imidazo[1,2-b]pyridazin-2-yl)pyrimidine-2-carboxamide], for which the figures for the IC50 against CK1ε and on CK1δ were 48.1 nM and 16 nM, respectively.

Consider `COCCN1CCN(c2c(-c3ccc4nc(NC(=O)c5ccnc(F)c5)cn4n3)c(-c3ccc(F)cc3)nn2C)CC1` [Compound 120, 2-Fluoro-N-(6-(3-(4-fluorophenyl)-5-(4-(2-methoxyethyl)piperazin-1-yl)-1-methyl-1H-pyrazol-4-yl)imidazo[1,2-b]pyridazin-2-yl)isonicotinamide], for which the figures for the IC50 against CK1ε and against CK1δ were 18.6 nM and 0.73 nM, respectively.

With `Cn1cc(-c2ccc3nc(NC(=O)C45CC6CC(C)(CC(C)(C6)C4)C5)cn3n2)c(-c2ccc(F)cc2)n1` [Compound 94, (1,3,5S7)-N-(6-(3-(4-fluorophenyl)-1-methyl-1H-pyrazol-4-yl)imidazo[1,2-b]pyridazin-2-yl)-3,5-dimethyladamantane-1-carboxamide], the concentration for half-maximal inhibition (IC50) on CK1ε is 34.4 nM; against CK1δ, 8.3 nM.

Take `Cn1nc(-c2ccc(F)cc2)c(-c2ccc3nc(NC(=O)c4ccnc(F)c4)cn3n2)c1C1CCN(C(=O)c2cncs2)CC1` [Compound 154, 2-fluoro-N-(6-(3-(4-fluorophenyl)-1-methyl-5-(1-(thiazole-5-carbonyl)piperidin-4-yl)-1H-pyrazol-4-yl)imidazo[1,2-b]pyridazin-2-yl)isonicotinamide]: the IC50 at CK1ε and against CK1δ was 0.3 nM in each case.

Turning to `COc1c(F)cc(C(=O)Nc2cn3nc(-c4cn(C)nc4-c4ccc(F)cc4)ccc3n2)cc1F` [Compound 61, 3,5-difluoro-N-(6-(3-(4-fluorophenyl)-1-methyl-1H-pyrazol-4-yl)imidazo[1,2-b]pyridazin-2-yl)-4-methoxybenzamide], the concentration for half-maximal inhibition (IC50) was determined as 18.7 nM against CK1ε and 5.7 nM against CK1δ.

On to `Cn1nc(-c2ccc(F)cc2)c(-c2ccc3nc(NC(=O)c4ccnc(F)c4)cn3n2)c1C1CCN(Cc2ccon2)CC1` [Compound 150, 2-Fluoro-N-(6-(3-(4-fluorophenyl)-5-(1-(isoxazol-3-ylmethyl)piperidin-4-yl)-1-methyl-1H-pyrazol-4-yl)imidazo[1,2-b]pyridazin-2-yl)isonicotinamide], for which the IC50 worked out at 1 nM against CK1ε and 1.1 nM at CK1δ.

For the compound `Cn1cc(-c2ccc3nc(NC(=O)c4ccccc4F)cn3n2)c(-c2ccc(F)cc2)n1` [Compound 20, 2-fluoro-N-(6-(3-(4-fluorophenyl)-1-methyl-1H-pyrazol-4-yl)imidazo[1,2-b]pyridazin-2-yl)benzamide], the 50% inhibitory concentration (IC50) against CK1ε came to 9.2 nM; at CK1δ, 4.3 nM.

On to `Cn1nc(-c2ccc(F)cc2)c(-c2ccc3nc(NC(=O)c4ccnc(N5CCOCC5)c4)cn3n2)c1C1CCOCC1` [Compound 198, N-(6-(3-(4-Fluorophenyl)-1-methyl-5-(tetrahydro-2H-pyran-4-yl)-1H-pyrazol-4-yl)imidazo[1,2-b]pyridazin-2-yl)-2-morpholinoisonicotinamide], for which the IC50 against CK1ε turned out to be 4.8 nM; against CK1δ, 0.5 nM.

Turning to `Cn1cc(-c2ccc3nc(NC(=O)c4ccnnc4)cn3n2)c(-c2ccc(F)cc2)n1` [Compound 25, N-(6-(3-(4-fluorophenyl)-1-methyl-1H-pyrazol-4-yl)imidazo[1,2-b]pyridazin-2-yl)pyridazine-4-carboxamide], the IC50 was found to be 14.5 nM against CK1ε and 7.4 nM against CK1δ.

In the case of `Cn1nc(-c2ccc(F)cc2)c(-c2ccc3nc(NC(=O)c4cc(F)nc(F)c4)cn3n2)c1N1CCOCC1` [Compound 145, 2,6-difluoro-N-(6-(3-(4-fluorophenyl)-1-methyl-5-morpholino-1H-pyrazol-4-yl)imidazo[1,2-b]pyridazin-2-yl) isonicotinamide], the values for the IC50 at CK1ε and at CK1δ were 22.8 nM and 1.4 nM, respectively.

Regarding `O=C(Nc1cn2nc(-c3cn(C4CC4)nc3-c3ccc(F)cc3)ccc2n1)c1cccc(-c2cccnc2)c1` [Compound 108, N-(6-(1-cyclopropyl-3-(4-fluorophenyl)-1H-pyrazol-4-yl)imidazo[1,2-b]pyridazin-2-yl)-3-(pyridin-3-yl) benzamide], the half-maximal inhibitory concentration (IC50) was found to be 32.6 nM against CK1ε and 2 nM on CK1δ.

`Cn1nc(-c2ccc(F)cc2)c(-c2ccc3nc(NC(=O)c4ccnc(F)c4)cn3n2)c1C1CCOCC1` [Compound 196, 2-Fluoro-N-(6-(3-(4-fluorophenyl)-1-methyl-5-(tetrahydro-2H-pyran-4-yl)-1H-pyrazol-4-yl)imidazo[1,2-b]pyridazin-2-yl)isonicotinamide]: the IC50 at CK1ε amounted to 2 nM; against CK1δ, 0.2 nM.

Consider “2-fluoro-N-(6-(3-(4-fluorophenyl)-1- methyl-5-morpholino-1H-pyrazol-4-yl) imidazo[1,2-b]pyridazin-2-yl) isonicotinamide [Compound 144]”, for which the figures for the IC50 against CK1ε and against CK1δ were 3.7 nM and 0.74 nM, respectively.

Consider `Cc1nc(-c2cccnc2)sc1C(=O)Nc1cn2nc(-c3c(-c4ccc(F)cc4)nn(C)c3C3CCNCC3)ccc2n1` [Compound 174, N-(6-(3-(4-Fluorophenyl)-1-methyl-5-(piperidin-4-yl)-1H-pyrazol-4-yl)imidazo[1,2-b]pyridazin-2-yl)-4-methyl-2-(pyridin-3-yl)thiazole-5-carboxamide], for which the values for the concentration for half-maximal inhibition (IC50) against CK1ε and against CK1δ were 1.8 nM and 2.5 nM, respectively.

In the case of `Cn1nc(-c2ccc(F)cc2)c(-c2ccc3nc(NC(=O)c4ccnc(N5CCOCC5)c4)cn3n2)c1N1CCN(CCC(F)(F)F)CC1` [Compound 135, N-(6-(3-(4-Fluorophenyl)-1-methyl-5-(4-(3,3,3-trifluoropropyl)piperazin-1-yl)-1H-pyrazol-4-yl)imidazo[1,2-b]pyridazin-2-yl)-2-morpholinoisonicotinamide], the IC50 worked out at 35 nM against CK1ε and 1.6 nM at CK1δ.

Consider `Cn1nc(-c2ccc(F)cc2)c(-c2ccc3nc(NC(=O)c4ccncc4)cn3n2)c1C1CCN(C2CC2)CC1` [Compound 166, N-(6-(5-(1-cyclopropylpiperidin-4-yl)-3-(4-fluorophenyl)-1-methyl-1H-pyrazol-4-yl)imidazo[1,2-b]pyridazin-2-yl)isonicotinamide], for which the results for the 50% inhibitory concentration (IC50) against CK1ε and on CK1δ were 1.9 nM and 1.4 nM, respectively.

Turning to `Cn1cc(-c2ccc3nc(NC(=O)c4csc(-c5ccc(Cl)cc5)n4)cn3n2)c(-c2ccc(F)cc2)n1` [Compound 11, 2-(4-chlorophenyl)-N-(6-(3-(4-fluorophenyl)-1-methyl-1H-pyrazol-4-yl)imidazo[1,2-b]pyridazin-2-yl)thiazol-4-carboxamide], the figures for the IC50 against CK1ε and at CK1δ were 899 nM and 24.6 nM, respectively.

On to `COc1ccc(F)c(C(=O)Nc2cn3nc(-c4cn(C)nc4-c4ccc(F)cc4)ccc3n2)c1` [Compound 44, 2-fluoro-N-(6-(3-(4-fluorophenyl)-1-methyl-1H-pyrazol-4-yl)imidazo[1,2-b]pyridazin-2-yl)-5-methoxybenzamide], for which the IC50 at CK1ε worked out at 21.2 nM; against CK1δ, 5.6 nM.

For `Cn1cc(-c2ccc3nc(NC(=O)c4ccc(C#N)c(F)c4)cn3n2)c(-c2ccc(F)cc2)n1` [Compound 48, 4-cyano-3-fluoro-N-(6-(3-(4-fluorophenyl)-1-methyl-1H-pyrazol-4-yl)imidazo[1,2-b]pyridazin-2-yl)benzamide], the IC50 at CK1ε amounted to 23.4 nM; at CK1δ, 5.7 nM.

Regarding `Cn1nc(-c2ccc(F)cc2)c(-c2ccc3nc(NC(=O)c4ccnc(F)c4)cn3n2)c1N1CCN(CC(N)=O)CC1` [Compound 124, N-(6-(5-(4-(2-Amino-2-oxoethyl)piperazin-1-yl)-3-(4-fluorophenyl)-1-methyl-1H-pyrazol-4-yl)imidazo[1,2-b]pyridazin-2-yl)-2-fluoroisonicotinamide], the half-maximal inhibitory concentration (IC50) against CK1ε is 1.3 nM; on CK1δ, 0.2 nM.

Take `Cn1nc(-c2ccc(F)cc2)c(-c2ccc3nc(NC(=O)c4ccnc(N5CCOCC5)c4)cn3n2)c1-c1ccncc1` [Compound 203, N-(6-(3-(4-Fluorophenyl)-1-methyl-5-(pyridin-4-yl)-1H-pyrazol-4-yl)imidazo[1,2-b]pyridazin-2-yl)-2-morpholinoisonicotinamide]: the values for the IC50 on CK1ε and against CK1δ were 7.9 nM and 0.9 nM, respectively.

For `Cn1cc(-c2ccc3nc(NC(=O)c4ccc(F)c(C#N)c4)cn3n2)c(-c2ccc(F)cc2)n1` [Compound 56, 3-cyano-4-fluoro-N-(6-(3-(4-fluorophenyl)-1-methyl-1H-pyrazol-4-yl)imidazo[1,2-b]pyridazin-2-yl)benzamide], the IC50 at CK1ε came out at 44.9 nM; on CK1δ, 14.4 nM.
